Laboratory results reported in the supplement of paper PMC11208160.

test: recombinant barcode read abundance after kanamycin selection (control-corrected) (log10(CPM+1)); higher = more efficient recombination; sequences stand for … in AGTGCAGAGAAAATCGGCCAGTTTTCTCTGCCTGCAGTCCGCATGCCGT…AGATTTATGCAGCGGACTGCCTTTCTCCCAAAGTGATAAACCGGACAGTATCATGGACCGGTTTTCCCGGTAATCCGTATTTGCAAGGTTGGTTTCACT; site = the 11-nt target
Outline: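 The screen was pooled in E. coli and paired targets with IS621 bridge RNA target-binding loops. Recombination efficiency is taken from barcode counts per million at recombinant junctions, averaged and adjusted against the control. Values, in the form log10(CPM+1), come from duplicate plating on chloramphenicol/ampicillin LB agar or on chloramphenicol/ampicillin/kanamycin with 0.1 mM IPTG.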
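Also: IS621 recombinase and bridge RNA in Escherichia coli cells.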

| Sequence | recombinant barcode read abundance (log10) |
| --- | --- |
| CTCTAGACTTGGGTTCTAACCTGTTGCTG (site CTCAAGACTCC) | 0.0495 |
| CTCTAGACTTGGGTTCTAACCTGTTGCTG (site CTCTAGACTCA) | 1.82 |
| CTCTAGGCTTGGGTTCTAACCTGTTGCCT (site CTCTAGGCTAG) | 0.0135 |
| CTCTAGGCTTGGGTTCTAACCTGTTGCCT (site CTCTCGGCTAG) | 0.186 |
| CTCTAGGCTTGGGTTCTAACCTGTTGCCT (site CTCTGGGCTAG) | 0.202 |
| CTCTAGGCTTGGGTTCTAACCTGTTGCCT (site CTCTTGGCTAG) | 0.13 |
| CTCTCATCTTGGGTTCTAACCTGTTGCCT (site CTCTCATCTAA) | 0.125 |
| CTCTCATCTTGGGTTCTAACCTGTTGCCT (site CTCTCATCTAG) | 0.149 |
| CTCTCGTCTTGGGTTCTAACCTGTTGCCT (site CTCTCGTCTAA) | 0.11 |
| CTCTCGTCTTGGGTTCTAACCTGTTGCCT (site CTCTCGTCTAC) | 0.119 |
| CTCTCGTCTTGGGTTCTAACCTGTTGCCT (site CTCTCGTCTAG) | 0.944 |
| CTCTCGTCTTGGGTTCTAACCTGTTGCCT (site CTCTCGTCTAT) | 0.0858 |
| CTCTCTTCTTGGGTTCTAACCTGTTGCCT (site CTCTCTCCTAG) | 0.0216 |
| CTCTCTTCTTGGGTTCTAACCTGTTGCCT (site CTCTCTTCTAG) | 0.114 |
| CTCTGAGCTTGGGTTCTAACCTGTTGCAG (site ACTGCTCCTAG) | 0.0584 |
| CTCTGAGCTTGGGTTCTAACCTGTTGCAG (site CTCTGAGCTCT) | 0.538 |
| CTCTGCTCTTGGGTTCTAACCTGTTGCTT (site CACTCCTCTAA) | 0.0518 |
| CTCTGCTCTTGGGTTCTAACCTGTTGCTT (site CTCTGCTCTAA) | 0.245 |
| CTCTGTCCTTGGGTTCTAACCTGTTGCTG (site CTCTGTCCTCA) | 0.374 |
| CTCTGTCCTTGGGTTCTAACCTGTTGCTG (site GCTGAGACTAC) | 0.0997 |
| CTCTTCCCTTGGGTTCTAACCTGTTGCTT (site CTATTCCCTCA) | 0.155 |
| CTCTTCCCTTGGGTTCTAACCTGTTGCTT (site CTCTTCCCTAA) | 0.594 |

| Sequence | recombinant barcode read abundance (log10) |
| --- | --- |
| CTCTTGTCTTGGGTTCTAACCTGTTGCTG (site CTCGTGTCTCT) | 0.0114 |
| CTCTTGTCTTGGGTTCTAACCTGTTGCTG (site CTCTTGTCTCA) | 1.01 |
| CTGAGAGCTTGGGTTCTAACCTGTTGCCT (site CAGAGAGCTAG) | 0.319 |
| CTGAGAGCTTGGGTTCTAACCTGTTGCCT (site CCGAGAGCTAG) | 0.058 |
| CTGAGAGCTTGGGTTCTAACCTGTTGCCT (site CGGAGAGCTAG) | 0.156 |
| CTGAGAGCTTGGGTTCTAACCTGTTGCCT (site CTGAGAGCTAG) | 1.61 |
| CTGAGCCCTTGGGTTCTAACCTGTTGCAT (site CGGAGCCCTCT) | 0.0964 |
| CTGAGCCCTTGGGTTCTAACCTGTTGCAT (site CTGAGCCCTAT) | 1.09 |
| CTGAGGACTTGGGTTCTAACCTGTTGCCT (site ATGAGGACTAG) | 0.0813 |
| CTGAGGACTTGGGTTCTAACCTGTTGCCT (site CTGAGGACTAG) | 1.29 |
| CTGAGGACTTGGGTTCTAACCTGTTGCCT (site GTGAGGACTAG) | 0.0454 |
| CTGAGGACTTGGGTTCTAACCTGTTGCCT (site TTGAGGACTAG) | 0.325 |
| CTGATCACTTGGGTTCTAACCTGTTGCCT (site CTGATAACTAG) | 0.0217 |
| CTGATCACTTGGGTTCTAACCTGTTGCCT (site CTGATCACTAG) | 1.03 |
| CTGATCACTTGGGTTCTAACCTGTTGCCT (site CTGATGACTAG) | 0.0708 |
| CTGATCACTTGGGTTCTAACCTGTTGCCT (site CTGATTACTAG) | 0.202 |
| CTGCACCCTTGGGTTCTAACCTGTTGCAG (site CTGCACCCTCT) | 0.477 |
| CTGCACCCTTGGGTTCTAACCTGTTGCAG (site GCGCACCCTCT) | 0.0743 |
| CTGCATACTTGGGTTCTAACCTGTTGCCT (site CAGCATACTAG) | 0.17 |
| CTGCATACTTGGGTTCTAACCTGTTGCCT (site CCGCATACTAG) | 0.217 |
| CTGCATACTTGGGTTCTAACCTGTTGCCT (site CGGCATACTAG) | 0.0131 |
| CTGCATACTTGGGTTCTAACCTGTTGCCT (site CTGCATACTAG) | 0.86 |

| Sequence | recombinant barcode read abundance (log10) |
| --- | --- |
| CTGCGCCCTTGGGTTCTAACCTGTTGCCT (site CTGAGCCCTAG) | 0.0517 |
| CTGCGCCCTTGGGTTCTAACCTGTTGCCT (site CTGCGCCCTAG) | 1.1 |
| CTGCGCCCTTGGGTTCTAACCTGTTGCCT (site CTGGGCCCTAG) | 0.249 |
| CTGCGCCCTTGGGTTCTAACCTGTTGCCT (site CTGTGCCCTAG) | 0.567 |
| CTGCGTGCTTGGGTTCTAACCTGTTGCCT (site CAGCGTGCTAG) | 0.503 |
| CTGCGTGCTTGGGTTCTAACCTGTTGCCT (site CCGCGTGCTAG) | 0.909 |
| CTGCGTGCTTGGGTTCTAACCTGTTGCCT (site CGGCGTGCTAG) | 0.176 |
| CTGCGTGCTTGGGTTCTAACCTGTTGCCT (site CTGCGTGCTAG) | 0.83 |
| CTGCTACCTTGGGTTCTAACCTGTTGCCT (site CAGCTACCTAG) | 0.706 |
| CTGCTACCTTGGGTTCTAACCTGTTGCCT (site CCGCTACCTAG) | 0.386 |
| CTGCTACCTTGGGTTCTAACCTGTTGCCT (site CGGCTACCTAG) | 0.0908 |
| CTGCTACCTTGGGTTCTAACCTGTTGCCT (site CTGCTACCTAG) | 1.13 |
| CTGCTAGCTTGGGTTCTAACCTGTTGCAG (site CTGCTAGCTCT) | 1.08 |
| CTGCTAGCTTGGGTTCTAACCTGTTGCAG (site GACAGGCCTAC) | 0.289 |
| CTGGAACCTTGGGTTCTAACCTGTTGCGG (site CTAGAAGCTCC) | 0 |
| CTGGAACCTTGGGTTCTAACCTGTTGCGG (site CTGGAACCTCC) | 1.25 |
| CTGGAGTCTTGGGTTCTAACCTGTTGCCT (site CTGGAGTCTAG) | 2.33 |
| CTGGAGTCTTGGGTTCTAACCTGTTGCCT (site CTGGCGTCTAG) | 0.322 |
| CTGGAGTCTTGGGTTCTAACCTGTTGCCT (site CTGGGGTCTAG) | 0.412 |
| CTGGAGTCTTGGGTTCTAACCTGTTGCCT (site CTGGTGTCTAG) | 0.793 |
| CTGGTATCTTGGGTTCTAACCTGTTGCTT (site CTGGTATCTAA) | 0.509 |
| CTGGTATCTTGGGTTCTAACCTGTTGCTT (site GGCTACCCTTT) | 0.0591 |

| Sequence | recombinant barcode read abundance (log10) |
| --- | --- |
| CTGGTGTCTTGGGTTCTAACCTGTTGCCT (site CTGGAGTCTAG) | 0.0957 |
| CTGGTGTCTTGGGTTCTAACCTGTTGCCT (site CTGGCGTCTAG) | 0.248 |
| CTGGTGTCTTGGGTTCTAACCTGTTGCCT (site CTGGGGTCTAG) | 0.0939 |
| CTGGTGTCTTGGGTTCTAACCTGTTGCCT (site CTGGTGTCTAG) | 2.42 |
| CTGTATACTTGGGTTCTAACCTGTTGCCA (site CTATATACTTG) | 0.113 |
| CTGTATACTTGGGTTCTAACCTGTTGCCA (site CTGTATACTTG) | 0.175 |
| CTGTCGCCTTGGGTTCTAACCTGTTGCCT (site CTATCGCCTAG) | 0.699 |
| CTGTCGCCTTGGGTTCTAACCTGTTGCCT (site CTCTCGCCTAG) | 0.0526 |
| CTGTCGCCTTGGGTTCTAACCTGTTGCCT (site CTGTCGCCTAG) | 0.276 |
| CTGTCGCCTTGGGTTCTAACCTGTTGCCT (site CTTTCGCCTAG) | 0.0305 |
| CTGTCTCCTTGGGTTCTAACCTGTTGCCT (site ATGTCTCCTAG) | 0.221 |
| CTGTCTCCTTGGGTTCTAACCTGTTGCCT (site CTGTCTCCTAG) | 1.29 |
| CTGTCTCCTTGGGTTCTAACCTGTTGCCT (site GTGTCTCCTAG) | 0.0715 |
| CTGTCTCCTTGGGTTCTAACCTGTTGCCT (site TTGTCTCCTAG) | 0.3 |
| CTGTGAACTTGGGTTCTAACCTGTTGCCT (site CAGTGAACTAG) | 0.128 |
| CTGTGAACTTGGGTTCTAACCTGTTGCCT (site CCGTGAACTAG) | 0.133 |
| CTGTGAACTTGGGTTCTAACCTGTTGCCT (site CGGTGAACTAG) | 0.216 |
| CTGTGAACTTGGGTTCTAACCTGTTGCCT (site CTGTGAACTAG) | 0.679 |
| CTGTGCCCTTGGGTTCTAACCTGTTGCCT (site CTGAGCCCTAG) | 0.105 |
| CTGTGCCCTTGGGTTCTAACCTGTTGCCT (site CTGCGCCCTAG) | 0.0771 |
